Like-named read-outs stand apart in the source and are kept apart here.
Legend:
[1] = target: T1, Drosophila OR85b (Drosophila melanogaster, UniProt Q9VHQ7); assay: Calcium ion fluorescence (GCaMP6) assay, OR85b stable HEK293 cell line; type: cell-based; conditions: for Average response: VUAA1-normalized response, mean of biological replicates
T1 construct: expressed in transfected cells
T1 sequence (Q9VHQ7 1-390): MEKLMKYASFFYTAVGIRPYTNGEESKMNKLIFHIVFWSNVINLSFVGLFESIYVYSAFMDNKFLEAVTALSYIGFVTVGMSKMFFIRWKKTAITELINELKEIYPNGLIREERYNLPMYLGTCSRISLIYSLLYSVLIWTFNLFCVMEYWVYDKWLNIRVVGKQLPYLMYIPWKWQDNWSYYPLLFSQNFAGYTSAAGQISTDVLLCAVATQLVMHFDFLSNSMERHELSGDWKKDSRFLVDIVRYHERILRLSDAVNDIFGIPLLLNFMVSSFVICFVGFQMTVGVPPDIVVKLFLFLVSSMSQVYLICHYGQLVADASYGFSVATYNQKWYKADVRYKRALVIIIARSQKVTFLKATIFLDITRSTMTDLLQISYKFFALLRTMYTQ
T1 sequence (Q9VNB5 1-486 partner): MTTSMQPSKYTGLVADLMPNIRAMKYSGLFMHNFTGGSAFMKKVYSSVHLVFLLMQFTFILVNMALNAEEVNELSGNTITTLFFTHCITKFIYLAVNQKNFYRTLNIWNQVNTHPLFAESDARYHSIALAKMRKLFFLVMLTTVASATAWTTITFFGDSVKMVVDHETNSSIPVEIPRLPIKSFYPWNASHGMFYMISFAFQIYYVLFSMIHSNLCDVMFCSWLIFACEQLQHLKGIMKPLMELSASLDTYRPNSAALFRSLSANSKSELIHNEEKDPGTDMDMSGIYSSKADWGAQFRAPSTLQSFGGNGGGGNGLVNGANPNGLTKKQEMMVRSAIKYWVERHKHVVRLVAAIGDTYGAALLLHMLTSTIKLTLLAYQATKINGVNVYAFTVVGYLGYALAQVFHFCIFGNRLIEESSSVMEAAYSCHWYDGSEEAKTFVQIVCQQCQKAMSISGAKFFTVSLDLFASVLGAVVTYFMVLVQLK
Outline: (§1)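 HEK293 lines stably expressing each Drosophila OR with GCaMP6, doxycycline-induced (1 μg/mL) 48 or 72 h. Fluorescence recorded 5 s baseline then 30 s after VOC injection at pH 7.3; ΔF=(FMAX−F0)/F0, normalized to 50 µM VUAA1 response per line, triplicate wells averaged; concentration series 0.01–100 μM.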

[2] = target: T2, Drosophila OR98a (Drosophila melanogaster, UniProt Q9VAZ3); assay: Calcium ion fluorescence (GCaMP6) assay, OR98a stable HEK293 cell line; type: cell-based; conditions: for Average response: average of biological replicates, fraction of VUAA1 response
T2 construct: expressed in transfected cells
T2 sequence (Q9VAZ3 1-397): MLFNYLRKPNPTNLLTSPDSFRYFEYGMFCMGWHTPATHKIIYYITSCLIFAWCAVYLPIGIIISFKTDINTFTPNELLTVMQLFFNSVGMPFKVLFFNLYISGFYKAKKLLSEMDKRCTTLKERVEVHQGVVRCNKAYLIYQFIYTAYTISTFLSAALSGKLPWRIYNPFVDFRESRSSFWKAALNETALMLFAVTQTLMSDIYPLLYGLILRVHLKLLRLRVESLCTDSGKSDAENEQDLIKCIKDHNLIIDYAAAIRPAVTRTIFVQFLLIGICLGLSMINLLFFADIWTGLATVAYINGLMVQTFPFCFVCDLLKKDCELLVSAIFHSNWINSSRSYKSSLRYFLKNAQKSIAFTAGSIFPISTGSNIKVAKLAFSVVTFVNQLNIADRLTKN
T2 sequence (Q9VNB5 1-486 partner): T1 sequence (Q9VNB5 1-486 partner)
Outline: as §1

[3] = concentration 1, normalized fluorescence change, values below 0.05 threshold given as 0
[4] = concentration 10, normalized fluorescence change, values below 0.05 threshold given as 0
[5] = concentration 100, normalized fluorescence change, values below 0.05 threshold given as 0
[6] = ligand concentration 1 (unit not given), threshold 0.05, below shown as 0
[7] = ligand concentration 10 (unit not given), threshold 0.05, below shown as 0
[8] = ligand concentration 100 (unit not given), threshold 0.05, below shown as 0
[9] = HEK293, read-out: OR85b response (VUAA1-normalized response)
[10] = HEK293, read-out: Average response
[11] = HEK293, read-out: OR98a response (VUAA1-normalized response)
[12] = ligand concentration 1 (unit not given), 0.05 threshold, values below shown as 0
[13] = ligand concentration 10 (unit not given), 0.05 threshold, values below shown as 0
[14] = ligand concentration 100 (unit not given), 0.05 threshold, values below shown as 0
[15] = HEK293, read-out: OR98a Average response (VUAA1-normalized)
[16] = HEK293, read-out: OR85b Average response (VUAA1-normalized)

Compound	Average response ([1]; OR85b cell line, cc. 1 µM)	Average response ([1]; OR85b cell line, cc. 10 µM)	Average response ([1]; OR85b cell line, cc. 100 µM)	OR85b response (VUAA1-normalized response) ([1]; VOC concentration 1 μM)	OR85b response (VUAA1-normalized response) ([1]; VOC concentration 10 μM)	OR85b response (VUAA1-normalized response) ([1]; VOC concentration 100 μM)	DF norm AVERAGE OR85b [1, 3]	DF norm AVERAGE OR85b [1, 4]	DF norm AVERAGE OR85b [1, 5]	OR98a response (VUAA1-normalized response) ([2]; VOC concentration 1 μM)	OR98a response (VUAA1-normalized response) ([2]; VOC concentration 10 μM)	OR98a response (VUAA1-normalized response) ([2]; VOC concentration 100 μM)	Average response ([2]; cc. 1 µM, OR98a cell line)	Average response ([2]; cc. 10 µM, OR98a cell line)	Average response ([2]; cc. 100 µM, OR98a cell line)	DF norm AVERAGE OR98a [2, 3]	DF norm AVERAGE OR98a [2, 4]	DF norm AVERAGE OR98a [2, 5]	activation at 1 µM [2, 10] [%]	activation at 10 µM [2, 10] [%]	further results
C=C(C)[C@H]1CC=C(C)CC1 [(R)-(+)-limonene]	0.0426	0.03	0.00	0.00	0.00	0.00	0	0	0	0.00	0.00	0.00	0.03	0.00	0.03	0	0	0			
C=C(C)[C@H]1CC=C(C)CC1 [limonene]	0.07	0.09	0.0644	0.07	0.09	0.0644				0.00	0.00	0.00	0.00	0.02	0.0268						DF norm AVERAGE OR85b [1, 6]: 0.07022; DF norm AVERAGE OR85b [1, 7]: 0.08814; DF norm AVERAGE OR85b [1, 8]: 0.06443; DF norm AVERAGE OR98a [2, 6]: 0; DF norm AVERAGE OR98a [2, 7]: 0; DF norm AVERAGE OR98a [2, 8]: 0
CCCCCO [1-pentanol]	0.00	0.00	0.00				0	0	0							0	0	0	0	2.81	activation at 1 µM [1, 9]: 0%; activation at 10 µM [1, 9]: 0%; activation at 100 µM [1, 9]: 0%; activation at 100 µM [2, 10]: 0%; activation at 1 µM [2, 11]: 0%; activation at 10 µM [2, 11]: 0%; activation at 100 µM [2, 11]: 0%
CC/C=C\CCOC(C)=O [z3-hexenyl acetate]	0.15	0.00	0.00																0	1.43	DF norm AVERAGE OR85b [1, 12]: 0.1453; DF norm AVERAGE OR85b [1, 13]: 0; DF norm AVERAGE OR85b [1, 14]: 0; activation at 100 µM [2, 10]: 10%; activation at 1 µM [2, 15]: 0%; activation at 10 µM [2, 15]: 1%; activation at 100 µM [2, 15]: 10%; DF norm AVERAGE OR98a [2, 12]: 0; DF norm AVERAGE OR98a [2, 13]: 0; DF norm AVERAGE OR98a [2, 14]: 0.1048
Cc1ccccc1 [toluene]	0.0843	0.07	0.11																0	4	activation at 1 µM [1, 16]: 8%; activation at 10 µM [1, 16]: 7%; activation at 100 µM [1, 16]: 11%; OR85b response (VUAA1-normalized) at 1 μM ([1]; OR85b cell line, VOC concentration 1 μM): 0.0843; OR85b response (VUAA1-normalized) at 10 μM ([1]; OR85b cell line, VOC concentration 10 μM): 0.07; OR85b response (VUAA1-normalized) at 100 μM ([1]; OR85b cell line, VOC concentration 100 μM): 0.11; DF norm AVERAGE OR85b [1, 12]: 0.08429; DF norm AVERAGE OR85b [1, 13]: 0.067; DF norm AVERAGE OR85b [1, 14]: 0.1125; activation at 100 µM [2, 10]: 3.33%; OR98a response (VUAA1-normalized) at 1 μM ([2]; OR98a cell line, VOC concentration 1 μM): 0.00; OR98a response (VUAA1-normalized) at 10 μM ([2]; OR98a cell line, VOC concentration 10 μM): 0.00; OR98a response (VUAA1-normalized) at 100 μM ([2]; OR98a cell line, VOC concentration 100 μM): 0.00; DF norm AVERAGE OR98a [2, 12]: 0; DF norm AVERAGE OR98a [2, 13]: 0; DF norm AVERAGE OR98a [2, 14]: 0
(+)-beta-cedrene	0.00	0.0468	0.0135	0.00	0.00	0.00	0	0	0	0.0855	0.06	0.06	0.0855	0.06	0.06	0.08554	0.05985	0.06078			
